Earlier results on two molecules are cited in patent US20110201579A1, “Method of Improving the Overall Health of a Patient by Application of Pregnenolone” (priority 2010, published 2011).

The conditions of data set [1]: individuals with rheumatoid arthritis.
For data set [2] the following is noted: rodents.
The conditions of data set [3]: some people.

With `C[C@]12CCC(=O)C=C1CC[C@@H]1[C@@H]2[C@@H](O)C[C@@]2(C)[C@H]1CC[C@]2(O)C(=O)CO` [cortisol], the “improvement of rheumatoid arthritis” value in data set [1] is on record as “outstanding short-term improvements”.
As for `CC(=O)[C@H]1CC[C@H]2[C@@H]3CC=C4C[C@@H](O)CC[C@]4(C)[C@H]3CC[C@]12C` [pregnenolone, Pregnenolone], the memory result in data set [2] is “one of the most effective and powerful memory boosters”. In addition, the “energy, vision, memory, clarity of thinking, wellbeing, sexual enjoyment or libido” value in data set [3] is “improves energy, vision, memory, clarity of thinking, wellbeing, and often sexual enjoyment or libido”.
